Reference: article PMC12001207 (The FEBS journal, 2025)

Tests used:
Assay type in all cases: cell-based
[1] = target: T1, succinate receptor 1 (SUCNR1) (Homo sapiens, UniProt Q9BXA5); test: cAMP inhibition assay; also DMR, IP1, Ca2+, arrestin-3 and miniG BRET
T1 sequence (Q9BXA5 1-334): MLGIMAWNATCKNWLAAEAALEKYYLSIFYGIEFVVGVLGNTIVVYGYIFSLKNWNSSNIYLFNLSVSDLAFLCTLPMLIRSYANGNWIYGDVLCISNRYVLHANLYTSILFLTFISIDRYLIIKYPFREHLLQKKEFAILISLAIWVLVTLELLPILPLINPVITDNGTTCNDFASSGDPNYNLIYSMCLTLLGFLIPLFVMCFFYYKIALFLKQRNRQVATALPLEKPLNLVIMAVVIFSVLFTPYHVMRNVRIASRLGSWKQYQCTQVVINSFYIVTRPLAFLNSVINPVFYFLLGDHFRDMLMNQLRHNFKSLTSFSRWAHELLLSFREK

[2] = target: T1, succinate receptor 1 (SUCNR1); test: antagonism at […] of agonist-induced IP1, Ca2+, cAMP inhibition, DMR and miniG BRET
[3] = target: T1, succinate receptor 1 (SUCNR1); test: dynamic mass redistribution, concentration-response

Compound | dynamic mass redistribution, concentration-response [3] | further results
O=C(O)[C@H]1O[C@H]1C(=O)O [CES, cis-epoxysuccinate] |  | EC50 [1]: ~0.111 µM
CN1CCN(Cc2ccc(-c3cccc(C(=O)Nc4ccccc4CC(=O)O)c3)cc2)CC1 [NF56-EJ40, 2-(2-(4′-((4-methylpiperazin-1-yl)methyl)-[1,1′-biphenyl]-3-carboxamido)phenyl)acetic acid] |  | antagonism at 100 nM of agonist-induced IP1, Ca2+, cAMP inhibition, DMR and mini [2]: NF56-EJ40 also completely inhibited the agonist-induced SUCNR1-mediated IP1 formation and caused a significant shift of the cAMP inhibition curve
O=C(O)CCC(=O)O [SUC, succinate] |  | EC50 [1]: ~0.644 µM
C=C(CC(=O)O)C(=O)O [itaconate] | Metabolite SUCNR1 agonists (malate, oxaloacetate, methylmalonate, itaconate, malonate) showed concentration-dependent responses upon SUCNR1 stimulation | 
O=C(O)CC(O)C(=O)O (centres unmarked) [malate] | Metabolite SUCNR1 agonists (malate, oxaloacetate, methylmalonate, itaconate, malonate) showed concentration-dependent responses upon SUCNR1 stimulation | 
O=C(O)CC(=O)O [malonate] | Metabolite SUCNR1 agonists (malate, oxaloacetate, methylmalonate, itaconate, malonate) showed concentration-dependent responses upon SUCNR1 stimulation | 
CC(C(=O)O)C(=O)O [methylmalonate] | Metabolite SUCNR1 agonists (malate, oxaloacetate, methylmalonate, itaconate, malonate) showed concentration-dependent responses upon SUCNR1 stimulation | 
O=C(O)CC(=O)C(=O)O [oxaloacetate] | Metabolite SUCNR1 agonists (malate, oxaloacetate, methylmalonate, itaconate, malonate) showed concentration-dependent responses upon SUCNR1 stimulation | 
